Measured values published in US12077503B2, “Substituted cyclic amides and their use as herbicides” (FMC CORPORATION, priority 2015, dated 2024).

What was measured:
Type in all cases: in vivo
[1] = tested on: redroot pigweed (Amaranthus retroflexus); assay: Test G Pre-Emergence Protocol; conditions: Amaranthus retroflexus, pre-emergence, 312 h, evaluated after 13 days; for pest or weed control at 15.625 g/ha: 15.625 g ai/ha; for pest or weed control at 15.625 g/ha / pest or weed control at 250 g/ha: read-out: Pigweed, Redroot damage rating (100=total damage to plant; 0=no damage to plant); for pest or weed control at 62.5 g/ha: 62.5 g ai/ha, 100=total damage to plant, 0=no damage to plant, read-out: Pigweed, Redroot damage rating; for pest or weed control at 250 g/ha: 250 g ai/ha
Procedure, shortened: (§1)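 Herbicidal effect was rated 13 days post-application on a scale where 100 equals total damage. Spraying took place the day after sowing, using 15.625, 62.5 or 250 g/ha of compound in a 50:50 acetone/water solution with 0.5% Tween 20.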

[2] = tested on: giant foxtail (Setaria faberi); assay: Test G Pre-Emergence Protocol; conditions: Setaria faberi, pre-emergence, 312 h, evaluated after 13 days; for pest or weed control at 15.625 g/ha: 15.625 g ai/ha; for pest or weed control at 15.625 g/ha / pest or weed control at 250 g/ha: read-out: Foxtail, Giant damage rating (100=total damage to plant; 0=no damage to plant); for pest or weed control at 62.5 g/ha: 62.5 g ai/ha, 100=total damage to plant, 0=no damage to plant, read-out: Foxtail, Giant damage rating; for pest or weed control at 250 g/ha: 250 g ai/ha
Procedure, shortened: as §1

[3] = tested on: velvetleaf (Abutilon theophrasti); assay: Test G Pre-Emergence Protocol; conditions: Abutilon theophrasti, pre-emergence, 312 h, evaluated after 13 days; for pest or weed control at 15.625 g/ha: 15.625 g ai/ha; for pest or weed control at 15.625 g/ha / pest or weed control at 250 g/ha: read-out: Velvetleaf damage rating (100=total damage to plant; 0=no damage to plant); for pest or weed control at 62.5 g/ha: 62.5 g ai/ha, 100=total damage to plant, 0=no damage to plant, read-out: Velvetleaf damage rating; for pest or weed control at 250 g/ha: 250 g ai/ha
Procedure, shortened: as §1

[4] = tested on: barnyardgrass (Echinochloa crus-galli); assay: Test G Pre-Emergence Protocol; conditions: Echinochloa crus-galli, pre-emergence, 312 h, evaluated after 13 days; for pest or weed control at 15.625 g/ha: 15.625 g ai/ha; for pest or weed control at 15.625 g/ha / pest or weed control at 250 g/ha: read-out: Barnyardgrass damage rating (100=total damage to plant; 0=no damage to plant); for pest or weed control at 62.5 g/ha: 62.5 g ai/ha, 100=total damage to plant, 0=no damage to plant, read-out: Barnyardgrass damage rating; for pest or weed control at 250 g/ha: 250 g ai/ha
Procedure, shortened: as §1

[5] = tested on: ivy-leaved morning glory (Ipomoea hederacea); assay: Test G Pre-Emergence Protocol; conditions: Ipomoea, pre-emergence, 312 h, evaluated after 13 days; for pest or weed control at 15.625 g/ha: 15.625 g ai/ha; for pest or weed control at 15.625 g/ha / pest or weed control at 250 g/ha: read-out: Morningglory, Ivy-leaved damage rating (100=total damage to plant; 0=no damage to plant); for pest or weed control at 62.5 g/ha: 62.5 g ai/ha, 100=total damage to plant, 0=no damage to plant, read-out: Morningglory, Ivy-leaved damage rating; for pest or weed control at 250 g/ha: 250 g ai/ha
Procedure, shortened: as §1

corn (Zea mays) [6] = assay: Test G Pre-Emergence Protocol; conditions: Zea mays, pre-emergence, 312 h, evaluated after 13 days; for plant injury at 15.625 g/ha: 15.625 g ai/ha; for plant injury at 15.625 g/ha / plant injury at 250 g/ha: read-out: Corn damage rating (100=total damage to plant; 0=no damage to plant); for plant injury at 62.5 g/ha: 62.5 g ai/ha, 100=total damage to plant, 0=no damage to plant, read-out: Corn damage rating; for plant injury at 250 g/ha: 250 g ai/ha
Procedure, shortened: as §1

[7] = tested on: redroot pigweed (Amaranthus retroflexus); assay: Test G Post-Emergence Protocol; conditions: Amaranthus retroflexus, post-emergence, 312 h, read-out: Pigweed, Redroot damage rating; for pest or weed control at 15.625 g/ha: 15.625 g ai/ha, evaluated after 13 days (100=total damage to plant; 0=no damage to plant); for pest or weed control at 62.5 g/ha: 62.5 g ai/ha; for pest or weed control at 62.5 g/ha / pest or weed control at 250 g/ha: evaluated after 13 days, 100=total damage to plant, 0=no damage to plant; for pest or weed control at 250 g/ha: 250 g ai/ha
Procedure, shortened: (§2)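 A glasshouse post-emergence test: 8-day-old plants sprayed at 15.625, 62.5 or 250 g/ha, then grown at 24/16 °C day/night with 14 h light and 65% humidity. Damage rated 13 days later, 0–100.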

[8] = tested on: giant foxtail (Setaria faberi); assay: Test G Post-Emergence Protocol; conditions: Setaria faberi, post-emergence, 312 h, read-out: Foxtail, Giant damage rating; for pest or weed control at 15.625 g/ha: 15.625 g ai/ha, evaluated after 13 days (100=total damage to plant; 0=no damage to plant); for pest or weed control at 62.5 g/ha: 62.5 g ai/ha; for pest or weed control at 62.5 g/ha / pest or weed control at 250 g/ha: evaluated after 13 days, 100=total damage to plant, 0=no damage to plant; for pest or weed control at 250 g/ha: 250 g ai/ha
Procedure, shortened: as §2

[9] = tested on: velvetleaf (Abutilon theophrasti); assay: Test G Post-Emergence Protocol; conditions: Abutilon theophrasti, post-emergence, 312 h, read-out: Velvetleaf damage rating; for pest or weed control at 15.625 g/ha: 15.625 g ai/ha, evaluated after 13 days (100=total damage to plant; 0=no damage to plant); for pest or weed control at 62.5 g/ha: 62.5 g ai/ha; for pest or weed control at 62.5 g/ha / pest or weed control at 250 g/ha: evaluated after 13 days, 100=total damage to plant, 0=no damage to plant; for pest or weed control at 250 g/ha: 250 g ai/ha
Procedure, shortened: as §2

[10] = tested on: barnyardgrass (Echinochloa crus-galli); assay: Test G Post-Emergence Protocol; conditions: Echinochloa crus-galli, post-emergence, 312 h, read-out: Barnyardgrass damage rating; for pest or weed control at 15.625 g/ha: 15.625 g ai/ha, evaluated after 13 days (100=total damage to plant; 0=no damage to plant); for pest or weed control at 62.5 g/ha: 62.5 g ai/ha; for pest or weed control at 62.5 g/ha / pest or weed control at 250 g/ha: evaluated after 13 days, 100=total damage to plant, 0=no damage to plant; for pest or weed control at 250 g/ha: 250 g ai/ha
Procedure, shortened: as §2

[11] = tested on: ivy-leaved morning glory (Ipomoea hederacea); assay: Test G Post-Emergence Protocol; conditions: Ipomoea, post-emergence, 312 h, read-out: Morningglory, Ivy-leaved damage rating; for pest or weed control at 15.625 g/ha: 15.625 g ai/ha, evaluated after 13 days (100=total damage to plant; 0=no damage to plant); for pest or weed control at 62.5 g/ha: 62.5 g ai/ha; for pest or weed control at 62.5 g/ha / pest or weed control at 250 g/ha: evaluated after 13 days, 100=total damage to plant, 0=no damage to plant; for pest or weed control at 250 g/ha: 250 g ai/ha
Procedure, shortened: as §2

corn (Zea mays) [12] = assay: Test G Post-Emergence Protocol; conditions: Zea mays, post-emergence, 312 h, read-out: Corn damage rating; for plant injury at 15.625 g/ha: 15.625 g ai/ha, evaluated after 13 days (100=total damage to plant; 0=no damage to plant); for plant injury at 62.5 g/ha: 62.5 g ai/ha; for plant injury at 62.5 g/ha / plant injury at 250 g/ha: evaluated after 13 days, 100=total damage to plant, 0=no damage to plant; for plant injury at 250 g/ha: 250 g ai/ha
Procedure, shortened: as §2

| Compound | pest or weed control at 15.625 g/ha [1] [%] | pest or weed control at 62.5 g/ha [1] [%] | pest or weed control at 250 g/ha [1] [%] | pest or weed control at 15.625 g/ha [2] [%] | pest or weed control at 62.5 g/ha [2] [%] | pest or weed control at 250 g/ha [2] [%] | pest or weed control at 15.625 g/ha [3] [%] | pest or weed control at 62.5 g/ha [3] [%] | pest or weed control at 250 g/ha [3] [%] | pest or weed control at 15.625 g/ha [4] [%] | pest or weed control at 62.5 g/ha [4] [%] | pest or weed control at 250 g/ha [4] [%] | pest or weed control at 15.625 g/ha [5] [%] | pest or weed control at 62.5 g/ha [5] [%] | pest or weed control at 250 g/ha [5] [%] | plant injury at 15.625 g/ha (corn (Zea mays) [6]) [%] | plant injury at 62.5 g/ha (corn (Zea mays) [6]) [%] | plant injury at 250 g/ha (corn (Zea mays) [6]) [%] | pest or weed control at 15.625 g/ha [7] [%] | pest or weed control at 62.5 g/ha [7] [%] | also measured |
| --- | --- | --- | --- | --- | --- | --- | --- | --- | --- | --- | --- | --- | --- | --- | --- | --- | --- | --- | --- | --- | --- |
| CN1C[C@H](c2ccc(C(F)(F)F)cc2)[C@@H](C(=O)Nc2ccc[n+]([O-])c2F)C1=O (racemic) [Compound 1815] | 0 | 0 | 0 | 0 | 0 | 40 | 0 | 0 | 0 | 0 | 0 | 0 | 0 | 0 | 0 | 0 | 0 | 0 | 0 | 0 | pest or weed control at 250 g/ha [7]: 0%; pest or weed control at 15.625 g/ha [8]: 0%; pest or weed control at 62.5 g/ha [8]: 0%; pest or weed control at 250 g/ha [8]: 10%; pest or weed control at 15.625 g/ha [9]: 0%; pest or weed control at 62.5 g/ha [9]: 0%; pest or weed control at 250 g/ha [9]: 0%; pest or weed control at 15.625 g/ha [10]: 0%; pest or weed control at 62.5 g/ha [10]: 0%; pest or weed control at 250 g/ha [10]: 0%; pest or weed control at 15.625 g/ha [11]: 0%; pest or weed control at 62.5 g/ha [11]: 0%; pest or weed control at 250 g/ha [11]: 0%; plant injury at 15.625 g/ha (corn (Zea mays) [12]): 0%; plant injury at 62.5 g/ha (corn (Zea mays) [12]): 0%; plant injury at 250 g/ha (corn (Zea mays) [12]): 0% |
| Cc1cc([C@H]2CN(C)C(=O)[C@@H]2C(=O)Nc2cccc(F)c2F)cnn1 (racemic) [Compound 1662] | 0 | 0 | 0 | 0 | 0 | 0 | 0 | 0 | 0 | 0 | 0 | 0 | 0 | 0 | 0 | 0 | 0 | 0 | 0 | 0 | pest or weed control at 250 g/ha [7]: 0%; pest or weed control at 15.625 g/ha [8]: 0%; pest or weed control at 62.5 g/ha [8]: 0%; pest or weed control at 250 g/ha [8]: 0%; pest or weed control at 15.625 g/ha [9]: 0%; pest or weed control at 62.5 g/ha [9]: 0%; pest or weed control at 250 g/ha [9]: 0%; pest or weed control at 15.625 g/ha [10]: 0%; pest or weed control at 62.5 g/ha [10]: 0%; pest or weed control at 250 g/ha [10]: 0%; pest or weed control at 15.625 g/ha [11]: 0%; pest or weed control at 62.5 g/ha [11]: 0%; pest or weed control at 250 g/ha [11]: 0%; plant injury at 15.625 g/ha (corn (Zea mays) [12]): 0%; plant injury at 62.5 g/ha (corn (Zea mays) [12]): 0%; plant injury at 250 g/ha (corn (Zea mays) [12]): 0% |
